The values that follow come from patent publication US20060257543A1, “Molecules comprising linked organic moieties as flavor modifiers for comestible compositions” (priority 2005, published 2006).

One experiment concerns the target T1, hT1R2/hT1R3 sweet receptor expressed in an HEK293 cell line (Homo sapiens, UniProt Q7RTX0+Q8TE23).
T1 construct: expressed in transfected cells; host or cells: HEK293 derivative, clone S-9
T1 sequence (Q8TE23 20-839): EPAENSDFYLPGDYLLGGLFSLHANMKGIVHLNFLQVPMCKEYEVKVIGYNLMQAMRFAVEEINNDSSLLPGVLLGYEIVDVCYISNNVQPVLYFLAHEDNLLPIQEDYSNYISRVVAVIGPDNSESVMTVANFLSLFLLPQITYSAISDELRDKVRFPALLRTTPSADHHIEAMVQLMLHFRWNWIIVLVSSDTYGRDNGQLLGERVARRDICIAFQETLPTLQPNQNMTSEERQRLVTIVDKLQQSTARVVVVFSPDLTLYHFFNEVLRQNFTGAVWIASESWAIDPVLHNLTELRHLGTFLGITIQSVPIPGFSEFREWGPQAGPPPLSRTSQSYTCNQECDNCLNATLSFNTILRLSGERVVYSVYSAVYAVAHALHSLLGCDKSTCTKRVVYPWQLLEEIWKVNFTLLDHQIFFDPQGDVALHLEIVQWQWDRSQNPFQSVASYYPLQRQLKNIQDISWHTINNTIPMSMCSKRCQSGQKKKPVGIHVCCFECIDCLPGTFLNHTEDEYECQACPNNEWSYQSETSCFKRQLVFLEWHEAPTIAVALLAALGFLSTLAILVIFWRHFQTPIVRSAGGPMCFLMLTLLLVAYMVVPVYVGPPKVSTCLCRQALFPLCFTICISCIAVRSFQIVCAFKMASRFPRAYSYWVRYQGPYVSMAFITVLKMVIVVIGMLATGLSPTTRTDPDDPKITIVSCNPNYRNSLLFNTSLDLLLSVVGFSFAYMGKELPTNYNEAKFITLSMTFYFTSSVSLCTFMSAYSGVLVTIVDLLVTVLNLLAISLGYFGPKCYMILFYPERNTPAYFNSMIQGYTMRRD
T1 sequence (Q7RTX0 21-852): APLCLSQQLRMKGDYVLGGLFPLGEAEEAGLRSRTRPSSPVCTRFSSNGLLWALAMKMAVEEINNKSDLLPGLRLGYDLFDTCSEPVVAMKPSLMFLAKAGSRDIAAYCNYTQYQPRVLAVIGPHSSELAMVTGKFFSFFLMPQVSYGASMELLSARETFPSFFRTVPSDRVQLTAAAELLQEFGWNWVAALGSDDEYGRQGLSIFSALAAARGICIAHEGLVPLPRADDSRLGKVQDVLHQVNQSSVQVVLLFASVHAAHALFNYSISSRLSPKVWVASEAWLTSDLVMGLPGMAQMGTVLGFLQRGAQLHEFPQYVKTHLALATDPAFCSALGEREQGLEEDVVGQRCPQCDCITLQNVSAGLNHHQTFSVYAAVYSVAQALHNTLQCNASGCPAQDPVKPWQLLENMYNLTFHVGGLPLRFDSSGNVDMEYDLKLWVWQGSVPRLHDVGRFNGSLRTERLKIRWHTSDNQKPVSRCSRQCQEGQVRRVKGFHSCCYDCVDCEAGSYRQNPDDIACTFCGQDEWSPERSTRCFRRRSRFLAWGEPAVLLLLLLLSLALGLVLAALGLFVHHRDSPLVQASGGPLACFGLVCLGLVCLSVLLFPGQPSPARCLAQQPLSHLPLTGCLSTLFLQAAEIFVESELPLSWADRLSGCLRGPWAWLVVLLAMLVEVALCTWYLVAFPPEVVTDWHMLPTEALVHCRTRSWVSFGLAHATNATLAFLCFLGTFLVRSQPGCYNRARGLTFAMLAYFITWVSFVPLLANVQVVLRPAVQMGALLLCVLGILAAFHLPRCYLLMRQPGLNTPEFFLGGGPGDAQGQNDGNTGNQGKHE
As to the kind of experiment: In vitro hT1R2/hT1R3 sweet taste receptor activation assay (FLIPR, dose response). Type of experiment: cell-based. Conditions: read-out: EC50 for activation of a hT1R2/hT1R3 sweet receptor. The source says:
An HEK293 cell line derivative (see Chandrashekar, J., Mueller, K. L., Hoon, M. A., Adler, E., Feng, L., Guo, W., Zuker, C. S., Ryba, N. J.,. Cel,l 2000, 100, 703-711.) that stably expresses Gα15 and hT1R2/hT1R3 (see Li, X., Staszewski, L., Xu, H., Durick, K., Zoller, M., Adler, E. Proc Natl Acad Sci USA 2002, 99, 4692-4696, and PCT Publication No. WO 03/001876) was used to identify compounds with sweet taste enhancing properties. These references are hereby incorporated herein by reference for their methods of preparing and maintaing the cell lines discussed below, and for their methods for screeing compounds that inhibit the biological receptors.
Compounds covered in this document were initially selected based on their activity on the hT1R2/hT1R3—HEK293-Gα15 cell line (Li, et al. vide supra). Activity was determined using an automated fluorometric imaging assay on a FLIPR instrument (Fluorometric Intensity Plate Reader, Molecular Devices, Sunnyvale, Calif.) (designated FLIPR assay). Cells from one clone (designated S-9 cells) were seeded into 384-well plates (at approximately 50,000 cells per well) in a medium containing DMEM Low Glucose (Invitrogen, Carlsbad, Calif.), 10% dialyzed fetal bovine serum (Invitrogen, Carlsbad, Calif.), 100 Units/ml Penicillin G, and 100 μg/ml Streptomycin (Invitrogen, Carlsbad, Calif.) (Li, et al. vide supra) see also World Patent No. WO 03/001876 A2). S-9 cells were grown for 24 hours at 37° C. S-9 cells were then loaded with the calcium dye Fluo-3AM (Molecular Probes, Eugene, Oreg.), 4 μM in a phosphate buffered saline (D-PBS) (Invitrogen, Carlsbad, Calif.), for 1 hour at room temperature. After replacement with 25 μl D-PBS, stimulation was performed in the FLIPR instrument and at room temperature by the addition of 25 μl D-PBS supplemented with different stimuli at concentrations corresponding to twice the desired final level. Receptor activity was quantified by determining the maximal fluorescence increases (using a 480 nm excitation and 535 nm emission) after normalization to basal fluorescence intensity measured before stimulation.
(§1) For dose-responses analysis, stimuli were presented in duplicates at 10 different concentrations ranging from 60 nM to 30 μM. Activities were normalized to the response obtained with 400 mM D-fructose, a concentration that elicits maximum receptor response. EC50s were determined using a non-linear regression algorithm (using a Senomyx, Inc. software), where the Hill slope, bottom asymptotes and top asymptotes were allow to vary. Identical results were obtained when analyzing the dose-response data using commercially available software for non-linear regression analysis such as GraphPad PRISM (San Diego, Calif.).
On to `COc1ccc(CNc2c(F)cc(F)cc2F)cc1O` [Example 15, 2-methoxy-5-((2,4,6-trifluorophenylamino)methyl)phenol], for which the EC50 stood at 2.32 µM.
Take `COc1ccc(CNc2cc(C)ccc2C)cc1O` [Example 17, 5-((2,5-dimethylphenylamino)methyl)-2-methoxyphenol]: the EC50 amounted to 2.58 µM.
Same read-out and setting: under `CC(C)c1ccc(NC(=S)NCc2ccoc2)cc1` [Example 10, 1-(furan-3-ylmethyl)-3-(4-isopropylphenyl)thiourea] stands 0.75 µM.

The experiment is the same for the next values; noted with them: read-out: Sweet EC50.
As to `COc1cc(OC)c(CNC(=S)Nc2ccc(OC(C)C)cc2)c(OC)c1` [Example B1], the EC50 worked out at 0.26 µM.
Still for that read-out and setting: under `S=C(NCc1ccc[nH]1)Nc1ccc(N2CCOCC2)cc1` [Example B38] stands 8.17 µM; under `CC(C)Oc1ccc(NC(=S)NCc2ccncc2)cc1` [Example B41], 14.2 µM.
Still for that read-out and setting: under `COc1ccc(S(=O)(=O)Nc2ccc3nn(C)cc3c2)cc1` [Example B47] stands 2.94 µM; under `FC(F)(F)Oc1ccc(NC(=S)NCc2ccc[nH]2)cc1` [Example B20], 0.59 µM.
In the case of `CCCCOc1ccc(S(=O)(=O)Nc2cccnc2)cc1` [Example B46], the EC50 was found to be 2.19 µM.
With `S=C(NCc1cccs1)Nc1ccc(-n2cccn2)cc1` [Example B26], the EC50 amounted to 1.53 µM.
With `Cc1cc(CNC(=S)Nc2ccc(OC(C)C)cc2)no1` [Example B7], the EC50 came out at 1.89 µM.
The same measure, in the same setting: under `CCCOc1ccc(NC(=S)NCc2ccco2)cc1` [Example B5] stands 1.51 µM.
For `CC(C)Oc1ccc(NC(=S)NCc2cccs2)cn1` [Example B11], the EC50 stood at 0.22 µM.
As to `CCOc1ccc(S(=O)(=O)NCc2ccncc2)cc1` [Example B44], the EC50 was determined as 0.93 µM.
The same measure, in the same setting: under `CCn1cccc1CNC(=S)Nc1ccc(OC(C)C)cc1` [Example B13] stands 1.29 µM.

The target in a further experiment is T2, hT1R1/hT1R3 umami receptor expressed in an HEK293 cell line (Homo sapiens, UniProt Q7RTX0+Q7RTX1).
T2 construct: expressed in transfected cells; host or cells: HEK293 derivative, clone I-17, expression induced with mifepristone
T2 sequence (Q7RTX1 21-841): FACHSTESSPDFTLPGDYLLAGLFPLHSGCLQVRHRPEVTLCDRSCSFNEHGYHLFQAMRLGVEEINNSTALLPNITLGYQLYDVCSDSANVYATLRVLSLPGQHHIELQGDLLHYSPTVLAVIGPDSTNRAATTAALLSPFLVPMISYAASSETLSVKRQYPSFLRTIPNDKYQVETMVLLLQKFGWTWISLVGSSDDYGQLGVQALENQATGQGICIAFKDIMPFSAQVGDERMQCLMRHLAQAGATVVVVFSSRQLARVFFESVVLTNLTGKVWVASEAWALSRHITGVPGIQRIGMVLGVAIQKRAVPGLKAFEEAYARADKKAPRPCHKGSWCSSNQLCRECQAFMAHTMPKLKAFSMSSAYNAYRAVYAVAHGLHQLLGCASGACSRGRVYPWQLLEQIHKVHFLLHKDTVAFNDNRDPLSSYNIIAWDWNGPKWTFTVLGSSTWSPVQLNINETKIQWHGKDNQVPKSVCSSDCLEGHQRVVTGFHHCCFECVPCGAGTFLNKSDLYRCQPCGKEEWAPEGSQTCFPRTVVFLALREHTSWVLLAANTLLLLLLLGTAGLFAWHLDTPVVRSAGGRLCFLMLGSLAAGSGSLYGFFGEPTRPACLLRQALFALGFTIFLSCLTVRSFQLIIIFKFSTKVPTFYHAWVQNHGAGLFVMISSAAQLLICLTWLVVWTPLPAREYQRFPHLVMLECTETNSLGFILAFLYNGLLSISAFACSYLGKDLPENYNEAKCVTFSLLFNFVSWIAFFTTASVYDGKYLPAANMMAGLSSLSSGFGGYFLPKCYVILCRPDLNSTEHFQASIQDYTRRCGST
T2 sequence (Q7RTX0 21-852): T1 sequence (Q7RTX0 21-852)
The experiment in a line: In vitro hT1R1/hT1R3 umami taste receptor activation assay (FLIPR, dose response). Format: cell-based. Conditions: read-out: Umami EC50.
Description: In order to identify new savory flavoring agents and enhancers, including compounds with savory agonist and enhancer activities (dual activity), the tastant compounds of Formula (I) were screened in primary assays and secondary assays including compound dose response and enhancement assay. In a primary assay for potential ability to modulate umami taste, tastant compounds of Formula (I) that can be either savory flavoring agents in their own right or flavor enhancers of MSG are identified and scores of their activities are given as percentage of the maximum MSG intensity (%). In compound dose response, an EC50 is calculated to reflect the potency of the compound as a savory agonist or enhancer.
An HEK293 cell line derivative (see e.g., Chandrashekar, et al., Cell (2000) 100: 703-711) which stably expresses Gα15 and hT1R1/hT1R3 under an inducible promoter (see WO 03/001876 A2) was used to identify compounds with savory tasting properties.
Compounds disclosed in this application were initially selected based on their activity on the hT1R1/hT1R3-HEK293-Gα15 cell line. Activity was determined using an automated fluorometric imaging assay on a FLIPR instrument (Fluorometric Intensity Plate Reader, Molecular Devices, Sunnyvale, Calif.) (designated FLIPR assay). Cells from one clone (designated clone I-17) were seeded into 384-well plates (at approximately 48,000 cells per well) in a medium containing Dulbecco's modified Eagle's medium (DMEM) supplemented with GlutaMAX (Invitrogen, Carlsbad, Calif.), 10% dialyzed fetal bovine serum (Invitrogen, Carlsbad, Calif.), 100 Units/ml Penicillin G, 100 μg/ml Streptomycin (Invitrogen, Carlsbad, Calif.) and 60 pM mifepristone (to induce expression of hT1R1/hT1R3, (see WO 03/001876 A2). I-17 cells were grown for 48 hours at 37° C. I-17 cells were then loaded with the calcium dye Fluo-3AM (Molecular Probes, Eugene, Oreg.), 4 μM in a phosphate buffered saline (D-PBS) (Invitrogen, Carlsbad, Calif.), for 1.5 hours at room temperature. After replacement with 25 μl D-PBS, stimulation was performed in the FLIPR instrument and at room temperature by the addition of 25 μl D-PBS supplemented with different stimuli at concentrations corresponding to twice the desired final level. Receptor activity was quantified by determining the maximal fluorescence increases (using a 480 nm excitation and 535 nm emission) after normalization to basal fluorescence intensity measured before stimulation.
as §1, with “1.5” for “60”, “60” for “400”, “monosodium glutamate,” for “D-fructose,”, “EC50s (concentration of compound that causes 50% activation of receptor)” for “EC50s”, “algorithm,” for “algorithm (using a Senomyx, Inc. software),”
Turning to `CC(C)(C)c1ccc(NC(=S)NCCc2ccccn2)cc1` [Example A3], the EC50 was 1.92 µM.
Take `Cc1cc(CNC(=S)Nc2ccc(OC(C)C)cc2)no1` [Example A20]: the EC50 came to 11 µM.
On to `COc1ccc(C(=O)CC(SCO)c2ccc(Cl)cc2)cc1` (centres unmarked) [Example A10], for which the EC50 came out at 6.05 µM.
In the case of `CC1CCCCC1NC(=S)Nc1ccc2c(c1)OCO2` (centres unmarked) [Example A19], the EC50 was found to be 13.4 µM.
`CSc1ccccc1NC(=S)NC1CCCCC1C` (centres unmarked) [Example A15]: the EC50 came out at 3 µM.
